pIC50: −log10 of the molar value.

Experiment [1] concerns the target interaction between PD-1 and PD-L1 (Homo sapiens, UniProt Q9NZQ7). The experiment can be described thus: PD-1/PD-L1 protein-protein interaction assay (ALPHA). The conditions noted are these: 2 nM His-tagged human PD-L1, 0.6 nM PD-1-Fc, AlphaScreen. It counts as binding. Background: Bead proximity is the source of the signal in Alpha formats.
Protocol: PD-1′PD-L1 Protein-Protein Interaction Assay
Amplified Luminescent Proximity Homogeneous Assay (ALPHA) platform was used to evaluate the ability of the compounds to block the interaction between PD-1 and PD-L1. The assays were performed in half volume white 96-well plate in a final volume of 40 μl. Compounds at various concentrations were preincubated with 2 nM His tagged recombinant human PD-L1 protein and 0.6 nM recombinant PD-1 protein with Fc-tag (both reagents were purchased from AcroBiosystems) for 40 minutes. After the preincubation, 20 μg/mL of Alphascreen Ni chelate donor beads (PerkinElmer, USA) and Protein A acceptor beads (PerkinElmer, USA) were added into the well and incubated under reduced light at 25° C. for 120 minutes. The signal was measured with the EnSight Multimode Plate Reader. IC50 values were calculated from the four-parameter logistic curve fit.
The next experiment has as its target T1, PD-1/PD-L1 interaction (Homo sapiens, UniProt Q9NZQ7).
T1 construct: expressed in transfected cells
The experiment can be described thus: PD-1/PD-L1 blockage cell-based bioassay (Jurkat NFAT luciferase / CHO-PDL1 co-culture). The settings on record: Jurkat NFAT cells co-cultured with CHO-PDL1 cells, 6 h, luminescence.

T1 sequence (Q9NZQ7 19-290): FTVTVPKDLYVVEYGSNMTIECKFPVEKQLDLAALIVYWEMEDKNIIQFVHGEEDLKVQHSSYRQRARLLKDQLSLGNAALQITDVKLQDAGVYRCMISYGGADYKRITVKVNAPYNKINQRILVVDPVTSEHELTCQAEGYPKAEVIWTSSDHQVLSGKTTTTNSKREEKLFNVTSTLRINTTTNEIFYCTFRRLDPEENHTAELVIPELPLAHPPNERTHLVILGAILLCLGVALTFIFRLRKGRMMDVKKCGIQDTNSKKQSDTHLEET
Chain of interaction between PD-1 and PD-L1 (Q9NZQ7 19-238 limits assumed): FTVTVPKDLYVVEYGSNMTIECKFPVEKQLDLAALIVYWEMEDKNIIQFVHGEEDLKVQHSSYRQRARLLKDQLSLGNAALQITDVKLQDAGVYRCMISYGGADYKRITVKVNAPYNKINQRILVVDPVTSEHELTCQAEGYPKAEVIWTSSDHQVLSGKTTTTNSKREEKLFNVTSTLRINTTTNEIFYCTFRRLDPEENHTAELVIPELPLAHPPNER
Protocol for PD-1/PD-L1 interaction: PD-1/PD-L1 Blockage Cell-Based Bioassay
Jurkat T cells expressing human PD-1 and luciferase gene reporter driven by TCR-mediated NFAT response element (Jurkat NFAT) were co-cultured with CHO-kl cells expressing human PD-L1 and surface-bound TCR activator (CHO-PDL1). […] CHO-PDL1 cells (20,000 cells/well) were seeded overnight. Compounds were added on CHO-PDL1 and incubated for 2 h at 37° C. Jurkat NFAT cells (20,000 cells/well) were diluted in RPMI assay medium (RPMI1640 with 1% FBS) and added into each well. After co-incubation for 6 h at 37° C., luminescence was determined by adding Bio-Glo™ Luciferase reagent (Promega) and measured with a luminescence plate reader. EC50 values were calculated from the four-parameter concentration-response curves.

As a reminder, the pIC50 is the negative decadic logarithm of the IC50, by convention in mol/L. For `COc1cc(-n2ccc3c(-c4cccc(-c5ccc(CNCC6CNC6)c(OC)n5)c4Cl)cccc32)cc(OC)c1CNC[C@@H]1CCC(=O)N1` [Example 33], the pIC50 in experiment [1] is 7.00 to 8.00; against PD-1/PD-L1 interaction, less than 5.70.

Consider `COc1cc(-n2ccc3c(-c4cccc(-c5ccc(CN6CC[C@@H](O)C6)c(OC)n5)c4Cl)ccnc32)cc(OC)c1CNC[C@@H]1CCC(=O)N1` [Example 34], for which the pIC50 is 8.00 to 9.00 in experiment [1] and less than 5.70 at PD-1/PD-L1 interaction.

In the case of `COc1cc(-n2ccc3c(-c4cccc(-c5ccc(CN6CC(C)(O)C6)c(OC)n5)c4Cl)cccc32)cc(OC)c1CNC[C@@H]1CCC(=O)N1` [Example 35], the pIC50 in experiment [1] is 8.00 to 9.00; against PD-1/PD-L1 interaction it was 5.70 to 6.70.

For `COc1cc(-n2ccc3c(-c4cccc(-c5ccc(CN6CC(C)(C(=O)O)C6)c(OC)n5)c4Cl)cccc32)cc(OC)c1CNC[C@@H]1CCC(=O)N1` [Example 37], the pIC50 in experiment [1] was 8.00 to 9.00; at PD-1/PD-L1 interaction it was 5.70 to 6.70.

With `COc1cc(-n2ccc3c(-c4cccc(-c5ccc(CNC[C@@H]6CCC(=O)N6)c(OC)n5)c4Cl)cccc32)cc(OC)c1CN1CC[C@@H](NC(C)=O)C1` [Example 38], the negative-log IC50 (pIC50) in experiment [1] was 7.00 to 8.00; against PD-1/PD-L1 interaction, less than 5.70.

Take `COc1cc(-n2ccc3c(-c4cccc(-c5ccc(CNC[C@@H]6CCC(=O)N6)c(OC)n5)c4Cl)cccc32)cc(OC)c1CNCC(C)(C)C(N)=O` [Example 39]: the pIC50 in experiment [1] was greater than 9.00; against PD-1/PD-L1 interaction, 5.70 to 6.70.

On to `COc1cc(-n2ccc3c(-c4cccc(-c5ccc(CNC[C@@H]6CCC(=O)N6)c(OC)n5)c4Cl)cccc32)cc(OC)c1CNCC(C)(C)C(=O)O` [Example 42], for which the negative-log IC50 (pIC50) was greater than 9.00 in experiment [1] and greater than 6.70 at PD-1/PD-L1 interaction.

As for `COc1cc(-n2ccc3c(-c4cccc(-c5ccc(CNC[C@@H]6CCC(=O)N6)c(OC)n5)c4Cl)ccnc32)cc(OC)c1CN1CC(C)(C(=O)NC2CC2)C1` [Example 46], the pIC50 in experiment [1] is 8.00 to 9.00; on PD-1/PD-L1 interaction, less than 5.70.

As for `COc1cc(-n2ncc3c(-c4cccc(-c5ccc(CNC[C@H]6C[C@@H](O)C6)c(OC)n5)c4Cl)cccc32)cc(OC)c1CN1CC(C)(C(=O)O)C1` [Example 47], the negative logarithm of the IC50 (pIC50) is greater than 9.00 in experiment [1] and greater than 6.70 at PD-1/PD-L1 interaction.

As to `COc1cc(-n2ccc3c(-c4cccc(-c5ccc(CNCC(C)(C)C(=O)O)c(OC)n5)c4Cl)cccc32)cc(OC)c1CNC[C@@H]1CCC(=O)N1` [Example 48], the pIC50 in experiment [1] was 7.00 to 8.00; on PD-1/PD-L1 interaction, less than 5.70.

On to `COC(=O)C1CC[C@H](NCc2ccc(-c3cccc(-c4cccc5c4ccn5-c4cc(OC)c(CNC[C@@H]5CCC(=O)N5)c(OC)c4)c3Cl)nc2OC)C1` (stereo partly drawn) [Example 50], for which the pIC50 in experiment [1] is 7.00 to 8.00; on PD-1/PD-L1 interaction, less than 5.70.

With `COc1cc(-n2ccc3c(-c4cccc(-c5ccc(CNC[C@@H]6CCC(=O)N6)c(OC)n5)c4Cl)cccc32)cc(OC)c1CN1CC(C)(O)C1` [Example 53], the figures for the negative logarithm of the IC50 (pIC50) (in experiment [1]; at PD-1/PD-L1 interaction) were greater than 9.00 and 5.70 to 6.70, respectively.

Take `COc1cc(-n2ncc3c(-c4cccc(-c5ccc(CN6CC(C)(O)C6)c(OC)n5)c4Cl)cccc32)cc(OC)c1CNC[C@@H]1CCC(=O)N1` [Example 54]: the pIC50 in experiment [1] is 7.00 to 8.00; on PD-1/PD-L1 interaction, less than 5.70.

In the case of `COc1cc(-n2ncc3c(-c4cccc(-c5ccc(CNC[C@H]6C[C@@H](O)C6)c(OC)n5)c4Cl)cccc32)cc(OC)c1CNC[C@@H]1CCC(=O)N1` [Example 55], the figures for the pIC50 (in experiment [1]; against PD-1/PD-L1 interaction) were 8.00 to 9.00 and 5.70 to 6.70, respectively.

`COc1cc(-n2ccc3c(-c4cccc5c4ccn5-c4cc(OC)c(CNC[C@@H]5CCC(=O)N5)c(OC)c4)cccc32)cc(OC)c1CNC[C@@H]1CCC(=O)N1` [Example 64, (5S,5′S)-5,5′-((((1H,1′H-[4,4′-biindole]-1,1′-diylbis(2,6-dimethoxy-4,1-phenylene))bis(methylene))bis(azanediyl))bis(methylene))bis(pyrrolidin-2-one)]: the pIC50 in experiment [1] was 8.00 to 9.00; at PD-1/PD-L1 interaction it was less than 5.70.

On to `COc1cc(-n2ccc3c(-c4cccc(-c5cnc(CNC[C@@H]6CCC(=O)N6)c(OC)n5)c4Cl)cccc32)cc(OC)c1CNC[C@@H]1CCC(=O)N1` [Example 65, (S)-5-((((5-(2-chloro-3-(1-(3,5-dimethoxy-4-(((((S)-5-oxopyrrolidin-2-yl)methyl)amino)methyl)phenyl)-1H-indol-4-yl)phenyl)-3-methoxypyrazin-2-yl)methyl)amino)methyl)pyrrolidin-2-one], for which the pIC50 in experiment [1] is 8.00 to 9.00; at PD-1/PD-L1 interaction, 5.70 to 6.70.

Regarding `COc1cc(-n2ncc3c(-c4cccc(-c5ccc(CNC[C@@H]6CCC(=O)N6)c(OC)n5)c4Cl)cccc32)cc(OC)c1CNCC1(C(=O)O)CC1` [Example 66, (S)-1-(((4-(4-(2-chloro-3-(6-methoxy-5-((((5-oxopyrrolidin-2-yl)methyl)amino)methyl)pyridin-2-yl)phenyl)-1H-indazol-1-yl)-2,6-dimethoxybenzyl)amino)methyl)cyclopropanecarboxylic acid], the pIC50 in experiment [1] was greater than 9.00; at PD-1/PD-L1 interaction it was greater than 6.70.

In the case of `COc1cc(-n2ccc3c(-c4cccc(NC(=O)c5nc6c(s5)CN(C)CC6)c4C)cccc32)cc(OC)c1CNC[C@@H]1CCC(=O)N1` [Example 67, (S)—N-(3-(1-(3,5-dimethoxy-4-((((5-oxopyrrolidin-2-yl)methyl)amino)methyl)phenyl)-1H-indol-4-yl)-2-methylphenyl)-5-methyl-4,5,6,7-tetrahydrothiazolo[5,4-c]pyridine-2-carboxamide], the negative-log IC50 (pIC50) in experiment [1] is 8.00 to 9.00; against PD-1/PD-L1 interaction, less than 5.70.

With `COc1cc(-n2ncc3c(-c4cccc(-c5ccc(CNC[C@H]6C[C@@H](O)C6)c(OC)n5)c4Cl)cccc32)cc(OC)c1CN1CC(C)(O)C1` [Example 68, 1-(4-(4-(2-chloro-3-(5-((((cis-3-hydroxycyclobutyl)methyl)amino)methyl)-6-methoxypyridin-2-yl)phenyl)-1H-indazol-1-yl)-2,6-dimethoxybenzyl)-3-methylazetidin-3-ol], the pIC50 in experiment [1] was greater than 9.00; against PD-1/PD-L1 interaction, greater than 6.70.

`COc1cc(-n2ccc3c(-c4cccc(-c5ccc(CN6CC(C)(C(=O)O)C6)c(OC)n5)c4Cl)ccnc32)cc(OC)c1CNC[C@@H]1CCC(=O)N1` [Example 70, (S)-1-((6-(2-chloro-3-(1-(3,5-dimethoxy-4-((((5-oxopyrrolidin-2-yl)methyl)amino)methyl)phenyl)-1H-pyrrolo[2,3-b]pyridin-4-yl)phenyl)-2-methoxypyridin-3-yl)methyl)-3-methylazetidine-3-carboxylic acid]: the pIC50 was 8.00 to 9.00 in experiment [1] and less than 5.70 against PD-1/PD-L1 interaction.

On to `COc1cc(-n2ncc3c(-c4cccc(-c5ccc(C6=NCCN6)c(OC)n5)c4Cl)cccc32)cc(OC)c1CNC[C@@H]1CCC(=O)N1` [Example 74, (S)-5-(((4-(4-(2-chloro-3-(5-(4,5-dihydro-1H-imidazol-2-yl)-6-methoxypyridin-2-yl)phenyl)-1H-indazol-1-yl)-2,6-dimethoxybenzyl)amino)methyl)pyrrolidin-2-one], for which the negative logarithm of the IC50 (pIC50) in experiment [1] was greater than 9.00; against PD-1/PD-L1 interaction, greater than 6.70.

Regarding `COc1cc(-n2ncc3c(-c4cccc(-c5ccc(C6=NCCN6)c(OC)n5)c4Cl)cccc32)cc(OC)c1CN1CC2(CNC(=O)C2)C1` [Example 76, 2-(4-(4-(2-chloro-3-(5-(4,5-dihydro-1H-imidazol-2-yl)-6-methoxypyridin-2-yl)phenyl)-1H-indazol-1-yl)-2,6-dimethoxybenzyl)-2,6-diazaspiro[3.4]octan-7-one], the values for the pIC50 (in experiment [1]; at PD-1/PD-L1 interaction) were greater than 9.00 and greater than 6.70, respectively.

With `COc1cc(-n2ncc3c(-c4cccc(-c5ccc(C6=NCCN6)c(OC)n5)c4Cl)cccc32)cc(OC)c1CNC[C@H]1C[C@@H](O)C1` [Example 77, cis-3-(((4-(4-(2-chloro-3-(5-(4,5-dihydro-1H-imidazol-2-yl)-6-methoxypyridin-2-yl)phenyl)-1H-indazol-1-yl)-2,6-dimethoxybenzyl)amino)methyl)cyclobutanol], the negative logarithm of the IC50 (pIC50) in experiment [1] was greater than 9.00; on PD-1/PD-L1 interaction, 5.70 to 6.70.

`COc1cc(-n2ncc3c(-c4cccc(-c5ccc(CN6CC7(CNC(=O)C7)C6)c(OC)n5)c4Cl)cccc32)cc(OC)c1CN1CC(C)(O)C1` [Example 79, 2-((6-(2-chloro-3-(1-(4-((3-hydroxy-3-methylazetidin-1-yl)methyl)-3,5-dimethoxyphenyl)-1H-indazol-4-yl)phenyl)-2-methoxypyridin-3-yl)methyl)-2,6-diazaspiro[3.4]octan-7-one]: the pIC50 is greater than 9.00 in experiment [1] and greater than 6.70 on PD-1/PD-L1 interaction.

For `COc1cc(-n2ccc3c(-c4cccc(-c5ccc(CNC[C@H]6C[C@@H](O)C6)c(OC)n5)c4Cl)cccc32)cc(OC)c1CNC[C@@H]1CCC(=O)N1` [Example 82, (S)-5-(((4-(4-(2-chloro-3-(5-((((cis-3-hydroxycyclobutyl)methyl)amino)methyl)-6-methoxypyridin-2-yl)phenyl)-1H-indol-1-yl)-2,6-dimethoxybenzyl)amino)methyl)pyrrolidin-2-one], the pIC50 was 8.00 to 9.00 in experiment [1] and 5.70 to 6.70 against PD-1/PD-L1 interaction.

With `COc1cc(-n2ccc3c(-c4cccc(-c5ccc(CNC[C@@H]6CCC(=O)N6)c(OC)n5)c4Cl)cccc32)cc(OC)c1CN1CC[C@H](O)C1` [Example 83, (S)-5-((((6-(2-chloro-3-(1-(4-(((S)-3-hydroxypyrrolidin-1-yl)methyl)-3,5-dimethoxyphenyl)-1H-indol-4-yl)phenyl)-2-methoxypyridin-3-yl)methyl)amino)methyl)pyrrolidin-2-one], the figures for the pIC50 (in experiment [1]; against PD-1/PD-L1 interaction) were 8.00 to 9.00 and 5.70 to 6.70, respectively.

`COc1cc(-n2ccc3c(-c4cccc(-c5ccc(CN6CC(C)(O)C6)c(OC)n5)c4Cl)cccc32)cc(OC)c1CN1CC2(CNC(=O)C2)C1` [Example 84, 2-(4-(4-(2-chloro-3-(5-((3-hydroxy-3-methylazetidin-1-yl)methyl)-6-methoxypyridin-2-yl)phenyl)-1H-indol-1-yl)-2,6-dimethoxybenzyl)-2,6-diazaspiro[3.4]octan-7-one]: the pIC50 was greater than 9.00 in experiment [1] and 5.70 to 6.70 at PD-1/PD-L1 interaction.

Source of the values: US20240336601A1 (Chulalongkorn University, priority 2020, published 2024).
